pIC50: −log10 of the molar value.
Assays:
HER2 (ErbB2) = HER2 (ErbB2) (Homo sapiens, UniProt P04626); test: in vitro enzyme activity, HER2 (ErbB2); type: biochemical; conditions: human ErbB2, [γ-33P]ATP, poly(Glu, Tyr) substrate
Procedure: (§1) The purpose of this assay is to detect the in vitro inhibitory activity of compounds on HER1 (ErbB1), HER2 (ErbB2), and HER4 (ErbB4). The enzymes used in this assay are human ErbB1, ErbB2 and ErbB4. Eurofins Pharma Discovery Service provided the method for activity detection.
(§2) Steps and Method of the Assay (96-Well Plate):
(§3) A buffer solution of the test compounds in a dilution of 5-fold (5 μL), polypeptide substrate poly(Glu, Tyr) (4:1) (2.5 μL), ErbB (4-20 ng, 2.5 μL), MnCl2 (50 mM, 1.25 μL), dH2O (3.75 μL), and [γ-^33P]ATP (10 μL) were added, and incubated at 30° C. for 10 minutes. The reaction was terminated by adding 3% phosphoric acid. 10 μL of the sample was taken and transferred to Filtermate A. The filter disc was washed 3 times with 75 mM phosphoric acid and once with methanol. The filter disc was transferred to a sealed plastic bag and the scintillation mixture (4 mL) was added. The intensity of the emitted photon was detected by a scintillation luminescence counter. The CPM (times/min) of the enzyme sample was compared with the CPM of the internal control sample. The level of photon intensity reflected the degree of the tyrosine kinase activity.

HER4 (ErbB4) = HER4 (ErbB4) (Homo sapiens, UniProt Q15303); test: in vitro enzyme activity, HER4 (ErbB4); type: biochemical; conditions: human ErbB4, [γ-33P]ATP, poly(Glu, Tyr) substrate
HER4 (ErbB4), sequence (Q15303 26-1308): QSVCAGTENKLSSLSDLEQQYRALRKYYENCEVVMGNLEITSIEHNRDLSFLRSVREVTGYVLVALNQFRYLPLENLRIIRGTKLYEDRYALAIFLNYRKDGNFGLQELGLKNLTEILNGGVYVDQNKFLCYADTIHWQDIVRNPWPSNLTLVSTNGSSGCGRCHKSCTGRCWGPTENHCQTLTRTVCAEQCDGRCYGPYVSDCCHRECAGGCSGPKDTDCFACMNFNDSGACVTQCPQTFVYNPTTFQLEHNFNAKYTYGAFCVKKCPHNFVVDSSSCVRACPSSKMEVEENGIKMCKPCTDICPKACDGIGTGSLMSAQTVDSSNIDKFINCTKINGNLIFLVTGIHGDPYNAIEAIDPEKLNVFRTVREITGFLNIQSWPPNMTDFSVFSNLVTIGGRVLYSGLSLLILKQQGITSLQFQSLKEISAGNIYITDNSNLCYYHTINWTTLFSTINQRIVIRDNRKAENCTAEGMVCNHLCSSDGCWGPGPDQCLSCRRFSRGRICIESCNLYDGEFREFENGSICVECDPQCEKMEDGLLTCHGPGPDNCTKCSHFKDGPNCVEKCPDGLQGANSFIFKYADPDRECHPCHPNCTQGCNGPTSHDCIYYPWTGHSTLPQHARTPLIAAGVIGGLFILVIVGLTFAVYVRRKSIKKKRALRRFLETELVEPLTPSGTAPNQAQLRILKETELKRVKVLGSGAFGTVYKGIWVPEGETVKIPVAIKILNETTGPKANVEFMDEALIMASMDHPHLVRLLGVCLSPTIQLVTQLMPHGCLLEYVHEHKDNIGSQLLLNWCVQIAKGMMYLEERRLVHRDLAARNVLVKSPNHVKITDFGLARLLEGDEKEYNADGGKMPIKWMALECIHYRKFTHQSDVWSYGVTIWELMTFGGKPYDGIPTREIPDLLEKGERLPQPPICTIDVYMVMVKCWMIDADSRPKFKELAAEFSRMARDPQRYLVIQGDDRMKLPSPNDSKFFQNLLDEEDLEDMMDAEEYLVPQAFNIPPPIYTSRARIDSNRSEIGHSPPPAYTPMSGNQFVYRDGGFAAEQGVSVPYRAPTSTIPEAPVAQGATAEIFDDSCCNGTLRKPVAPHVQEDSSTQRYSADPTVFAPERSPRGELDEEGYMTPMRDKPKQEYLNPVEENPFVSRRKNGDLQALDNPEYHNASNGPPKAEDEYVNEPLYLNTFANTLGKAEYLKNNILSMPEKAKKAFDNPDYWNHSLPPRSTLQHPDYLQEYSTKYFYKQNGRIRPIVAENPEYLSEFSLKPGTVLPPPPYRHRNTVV
Procedure: as §1, §2, §3

HER1 (ErbB1) = HER1 (ErbB1) (Homo sapiens, UniProt P00533); test: in vitro enzyme activity, HER1 (ErbB1); type: biochemical; conditions: human ErbB1, [γ-33P]ATP, poly(Glu, Tyr) substrate
HER1 (ErbB1), sequence (P00533 25-1210): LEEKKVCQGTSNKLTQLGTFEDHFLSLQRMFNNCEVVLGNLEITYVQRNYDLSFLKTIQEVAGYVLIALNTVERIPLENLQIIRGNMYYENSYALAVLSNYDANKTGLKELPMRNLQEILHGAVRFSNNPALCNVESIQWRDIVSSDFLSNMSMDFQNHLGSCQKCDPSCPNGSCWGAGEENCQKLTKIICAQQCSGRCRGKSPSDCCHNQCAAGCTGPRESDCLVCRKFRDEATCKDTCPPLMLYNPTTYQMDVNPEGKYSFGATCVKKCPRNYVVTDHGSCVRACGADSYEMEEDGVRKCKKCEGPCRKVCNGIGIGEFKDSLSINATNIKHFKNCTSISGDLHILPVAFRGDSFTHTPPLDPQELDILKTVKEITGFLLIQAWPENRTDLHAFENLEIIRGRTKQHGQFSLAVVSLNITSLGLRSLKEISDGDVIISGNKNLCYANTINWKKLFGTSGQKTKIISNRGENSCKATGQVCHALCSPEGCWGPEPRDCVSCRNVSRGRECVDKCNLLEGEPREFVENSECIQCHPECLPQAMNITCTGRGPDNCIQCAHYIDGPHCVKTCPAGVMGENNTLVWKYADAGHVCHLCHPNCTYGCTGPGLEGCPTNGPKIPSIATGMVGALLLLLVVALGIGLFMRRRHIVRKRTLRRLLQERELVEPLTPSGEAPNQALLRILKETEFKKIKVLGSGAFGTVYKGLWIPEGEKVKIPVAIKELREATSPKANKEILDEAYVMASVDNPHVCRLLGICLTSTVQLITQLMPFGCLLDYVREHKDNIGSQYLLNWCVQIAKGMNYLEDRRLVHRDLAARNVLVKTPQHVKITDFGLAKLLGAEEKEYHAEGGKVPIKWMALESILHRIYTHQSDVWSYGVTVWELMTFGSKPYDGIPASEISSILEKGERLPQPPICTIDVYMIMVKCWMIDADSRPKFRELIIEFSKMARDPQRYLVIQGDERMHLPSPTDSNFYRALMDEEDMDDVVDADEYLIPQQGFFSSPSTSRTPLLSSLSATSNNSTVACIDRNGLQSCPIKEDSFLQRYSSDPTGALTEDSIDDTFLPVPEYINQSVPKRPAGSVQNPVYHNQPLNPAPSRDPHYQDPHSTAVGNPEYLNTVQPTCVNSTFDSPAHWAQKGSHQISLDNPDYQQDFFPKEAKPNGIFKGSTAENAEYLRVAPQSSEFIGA
Procedure: as §1, §2, §3

NCI-N87 cell = test: inhibitory activity on cell proliferation (Cell-Titer-Glo), NCI-N87; type: cell-based; conditions: Homo sapiens, NCI-N87, 72 h; incubation for 3 days, Cell-Titer-Glo
From the text: Purpose of the assay: to detect the inhibitory activity of the test compounds on cell proliferation.
Principle of the assay: the luciferase in a Cell-Titer-Glo reagent produces oxidized luciferin with luciferin, oxygen and ATP as reaction substrates, and releases energy in the form of light. Since the luciferase reaction requires ATP, the total amount of light generated by the reaction is proportional to the total amount of ATP that reflects cell viability.
Cell Titer-Glo cell viability assay kit with luminescence (Promega #G7573)
According to the schematic diagram of the cell seed plate, cells were seeded in a 384- or 96-well plate at a density of 1000 cells per well and 25 μL per well, and 25 μL of PBS was added to the wells near edge of the place where no cells were seeded.
(1) The stock solution of the compounds has a concentration of 10 mM, and the compounds were diluted with DMSO to an initial concentration of 4 mM. The compounds were added to the plate with stock solution of compounds, 9 μL per well.
(2) The compounds were diluted with an ECHO liquid workstation, where 125 nL of compounds were added to each well of the cell plate, 125 nL of DMSO was added to each of the cell well in columns 2 and 23, and 125 nL of DMSO was added to each PBS well in columns 1 and 24.
2.3 After addition of the compounds, the cell plate was centrifuged at 1000 rpm for 1 min, and then placed in a 37° C., 5% CO2 incubator for incubation for 3 days.
The cell plate was taken out from the incubator and equilibrated at room temperature for 30 minutes. 25 μL of Cell-Titer-Glo reagent was added to each well, shaken for one minute to allow well mixed, and centrifuged at 1000 rpm for 1 minute. After 10 minutes, the plate was read on PerkinElmer Envision, and the […] reading time was set to 0.2 second.

HER2 (ErbB2), sequence (P04626 23-1255): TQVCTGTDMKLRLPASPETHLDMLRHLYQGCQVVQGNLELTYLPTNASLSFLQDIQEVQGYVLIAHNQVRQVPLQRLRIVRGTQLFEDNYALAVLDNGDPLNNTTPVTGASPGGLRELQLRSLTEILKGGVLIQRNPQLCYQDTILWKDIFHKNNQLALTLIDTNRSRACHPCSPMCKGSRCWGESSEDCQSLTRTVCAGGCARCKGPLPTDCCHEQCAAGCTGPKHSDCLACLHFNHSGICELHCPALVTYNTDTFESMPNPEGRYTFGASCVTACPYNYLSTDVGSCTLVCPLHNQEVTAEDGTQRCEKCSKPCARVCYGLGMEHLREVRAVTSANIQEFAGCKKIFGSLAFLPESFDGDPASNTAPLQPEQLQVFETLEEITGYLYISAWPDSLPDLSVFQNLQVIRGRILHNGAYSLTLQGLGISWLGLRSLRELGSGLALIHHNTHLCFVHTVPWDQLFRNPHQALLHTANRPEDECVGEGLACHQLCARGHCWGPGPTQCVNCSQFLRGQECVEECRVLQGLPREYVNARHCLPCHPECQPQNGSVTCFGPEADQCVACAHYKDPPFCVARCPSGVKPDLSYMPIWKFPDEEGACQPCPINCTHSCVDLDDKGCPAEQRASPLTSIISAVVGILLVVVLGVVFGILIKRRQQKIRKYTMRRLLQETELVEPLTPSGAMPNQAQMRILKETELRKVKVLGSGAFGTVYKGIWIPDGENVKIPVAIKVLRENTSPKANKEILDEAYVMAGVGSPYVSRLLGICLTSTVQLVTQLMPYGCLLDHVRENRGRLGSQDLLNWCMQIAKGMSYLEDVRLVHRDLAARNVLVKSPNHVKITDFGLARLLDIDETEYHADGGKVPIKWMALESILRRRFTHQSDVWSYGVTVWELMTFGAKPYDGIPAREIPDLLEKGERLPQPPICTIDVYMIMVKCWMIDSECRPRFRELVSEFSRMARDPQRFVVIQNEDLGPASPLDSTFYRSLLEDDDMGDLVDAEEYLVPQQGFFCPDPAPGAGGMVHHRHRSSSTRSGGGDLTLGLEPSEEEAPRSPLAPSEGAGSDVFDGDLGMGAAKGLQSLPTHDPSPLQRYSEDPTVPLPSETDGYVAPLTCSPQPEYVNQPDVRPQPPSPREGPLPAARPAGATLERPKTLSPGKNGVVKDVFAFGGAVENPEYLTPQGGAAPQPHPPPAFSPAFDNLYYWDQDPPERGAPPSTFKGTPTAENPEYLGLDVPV

| SMILES | pIC50 (HER2 (ErbB2)) | pIC50 (HER4 (ErbB4)) | pIC50 (HER1 (ErbB1)) | pIC50 (NCI-N87 cell) |
| --- | --- | --- | --- | --- |
| C=CC(=O)N1[C@@H]2CC[C@H]1C[C@H](Oc1cc3c(Nc4ccc(Cl)c(Cl)c4F)ncnc3cc1OCCOC)C2 [Example 22] | 8.15 | 8.52 | 7.92 |  |
| C=CC(=O)N1[C@@H]2CC[C@H]1C[C@H](Oc1cc3c(Nc4ccc(Cl)c(Cl)c4F)ncnc3cc1O[C@H]1CCOC1)C2 [Example 26] | 8.30 | 8.40 | 8.10 | 9.62 |
| C=CC(=O)N1[C@@H]2CC[C@H]1C[C@H](Oc1cc3c(Nc4ccc(Cl)c(Cl)c4F)ncnc3cc1OCC(=O)NC)C2 [Example 23] | 8.40 | 8.70 | 8.10 | 9.85 |
| C=CC(=O)N1[C@@H]2CC[C@H]1C[C@H](Oc1cc3c(Nc4ccc(Cl)c(Cl)c4F)ncnc3cc1OCCCO)C2 [Example 44] | 8.40 | 8.52 | 8.30 | 9.48 |
| C=CC(=O)N1[C@@H]2CC[C@H]1C[C@H](Oc1cc3c(Nc4ccc(Cl)c(Cl)c4F)ncnc3cc1OC1COC1)C2 [Example 42] |  |  |  | 9.04 |
| C=CC(=O)N1[C@@H]2CC[C@H]1C[C@H](Oc1cc3c(Nc4ccc(Cl)c(Cl)c4F)ncnc3cc1O[C@@H]1CCOC1)C2 [Example 27] | 8.30 | 8.52 | 7.80 | 9.51 |
| C=CC(=O)N1[C@@H]2CC[C@H]1C[C@H](Oc1cc3c(Nc4ccc(Cl)c(Cl)c4F)ncnc3cc1OCCO)C2 [Example 25] | 8.52 | 8.22 | 8.22 | 9.72 |
| C=CC(=O)N1C[C@H]2C[C@@H](C1)[C@H]2Oc1cc2c(Nc3ccc(F)c(Cl)c3)ncnc2cc1OC [Example 3] | 8.30 | 7.77 | 8.70 |  |
| C=CC(=O)N1[C@@H]2CC[C@H]1C[C@H](Oc1cc3c(Nc4cccc(Cl)c4F)ncnc3cc1OC)C2 [Example 33] | 8.22 | 8.52 | 8.15 |  |
| C=CC(=O)N1[C@@H]2CC[C@H]1C[C@H](Oc1cc3c(Nc4ccc(Cl)c(Cl)c4F)ncnc3cc1OCC(F)(F)F)C2 [Example 20] | 7.96 | 8.00 | 7.74 | 9.22 |

Source: patent US20210078958A1, “QUINAZOLINE DERIVATIVE AND USE THEREOF” (MEDSHINE DISCOVERY INC., priority 2017, published 2021)
